Reference: US11485701B2, “Insect repellent compounds and compositions, and methods thereof” (Iowa State University Research Foundation, Inc., priority 2016, dated 2022)
Counter-ions that a name gives are not always drawn. Like-named read-outs stand apart in the source and are kept apart here.

Tested on: Northern house mosquitoes (Culex pipiens)
Experiment: Short-term spatial repellency, static air repellency chamber
Format: in vivo
Conditions: for pest or weed control at 0.5 %: Culex pipiens; for Short-term repellency at low concentration, in words: filter paper treated with 0.1%
Experimental: Northern house mosquitoes (Culex pipiens), a primary carrier of West Nile virus in eastern North America, were obtained from an established colony in the Medical Entomology Laboratory in the Department of Entomology at Iowa State University of Science and Technology, Ames Iowa. Mosquito rearing was performed by established protocols that are maintained by the Medical Entomology Laboratory. Repellency bioassays were performed with adult female mosquitoes that emerged 5-7 days previously. […] Mosquitoes, prior to testing, were held at 27° C., 80% relative humidity, and on a 16:8 hr light:dark photoperiod.
Repellency bioassays were performed using a static air repellency chamber, which has been described in various publications by the Pesticide Toxicology Laboratory at Iowa State University of Science and Technology, Ames, Iowa Briefly, a 9-cm×60-cm glass tube was used to monitor the distribution of mosquitoes at 15 min, 30 min, 60 min, 90 min, 120 min, and 150 min after introducing mosquitoes into the static air repellency chamber. […] One end of the spatial chamber contained a treated filter paper, whereas the other (untreated) end of the spatial chamber was not treated with compound. Controls contained filter papers treated with acetone, the solvent used to make the 0.5% solutions. Each end of the repellency chamber was secured with a 100-mm Petri dish using celluloid tape. After securing the petri dishes with corresponding treated or untreated filter papers to the spatial chamber, mosquitoes were anesthetized with carbon dioxide, and approximately 20 female mosquitoes were placed into each repellency chamber for one replicate. The opening of the spatial repellency chamber was secured with celluloid tape to prevent their escape. Chambers were oriented in opposite directions from the previous replicate to account for any directional effect. Four replicates were performed for data analysis for both the control and treatment groups.
Data for spatial repellency, the percentage repellency, is reported at each of the respective time points in the figures and tables mentioned below. The percentage spatial repellency is the examination of the distribution of mosquitoes and is calculated using the following equation: […]

[1] = 0.25 h, filter paper, 1 mL of 0.5% solution in acetone, air-dried 15 min, 15 min after introduction, read-out: Short-term Percentage repellency 15 min
[2] = 1.5 h, filter paper, 1 mL of 0.5% solution in acetone, air-dried 15 min, 90 min, read-out: Short-term Percentage repellency 90 min
[3] = 2.5 h, filter paper, 1 mL of 0.5% solution in acetone, air-dried 15 min, 150 min, read-out: Short-term Percentage repellency 150 min

Row | Structure (SMILES) | pest or weed control at 0.5 % [1] | pest or weed control at 0.5 % [2] | pest or weed control at 0.5 % [3] | Short-term percentage repellency 150 min at 1/5 the concentration (0.1% (1/5 of 0.5%), 150 minutes, FIG. 6) | Short-term repellency at low concentration, in words (FIG. 6) | pest or weed control at 0.5 % (0.25 h, read-out: Short-term Percentage repellency 15 min)
1 | CC1CCC(C(C)C)C(OC(=O)C2(C)CCC2)C1 (stereo not shown) [Compound 2210, menthyl 1-methylcyclobutanecarboxylate] | -5% | 62.5% |  |  |  | 
2 | CC(C)=CCCC(C)CCOC(=O)C=C(C)C (stereo not shown) [Compound 2105, citronellyl 3,3-dimethylacrylate] | 45% | 75% | 65% |  |  | 
3 | CC(C)=CCCC(C)CCOC(=O)C1CCC1 (stereo not shown) [Citronellyl cyclobutanecarboxylate] |  |  |  | approximately 90% | significant levels of repellency | 
4 | CC(C)=CCC/C(C)=C\COC(=O)C1(C)CCC1 [Compound 2108, neryl 1-methylcyclobutanecarboxylate] | 60% | 90% | 85% |  |  | 
5 | CC(C)=CCCC(C)CCOC(=O)CC(F)(F)F (stereo not shown) [Compound 2235, citronellyl 3,3,3-trifluoropropanoate] | 12.5% | 62.5% | 77.5% |  |  | 
6 | CC(C)=CCC/C(C)=C/COC(=O)CC(C)C [Compound 2255A, geranyl isovalerate] | 35% | 60% | 52.5% |  |  | 
7 | CC(C)=CCCC(C)CCOC(=O)Cc1cccs1 (stereo not shown) [Compound 2244, citronellyl thiophen-2-ylacetate] | 32.5% | 45% | 55% |  |  | 
8 | C=CCc1ccc(OC(=O)CC(C)C)c(OC)c1 [Compound 1076A, eugenyl isovalerate] | 17.5% |  |  |  |  | 
9 | CC(C)=CCCC(C)CC(=O)OCC1(C)COC1 (stereo not shown) [Compound 3070, (3-methyloxetan-3-yl) methyl citronellate] | 15% | 42.5% | 32.5% |  |  | 
10 | CC(C)CC(=O)OC1CC(C)CCC1C(C)C (stereo not shown) [Compound 2256, menthyl isovalerate] | 37.5% | 42.5% | 27.5% |  |  | 
11 | CC(C)=CCCC(C)CCOC(=O)C1CC(F)(F)C1 (stereo not shown) [Compound 3069, citronellyl 3,3-difluorocyclobutanecarboxylate] | 2.5% | 20% | 27.5% |  |  | 
12 | CC(C)=CCCC(C)CC(=O)OCCO (stereo not shown) [Compound 1052, 2-hydroxyethyl citronellate] | 77.5% | 92.5% | 82.5% |  |  | 
13 | O=C(OC/C=C/c1ccccc1)C1CC1 [Compound 2038, cinnamyl cyclopropanecarboxylate] | 40% | 57.5% | 60% |  |  | 
14 | C=CC(C)(CCC=C(C)C)OC(=O)CC(C)C (stereo not shown) [Compound 2152, linalyl isovalerate] | 15% | 82.5% | 92.5% |  |  | 
15 | Cc1ccc(C(C)C)cc1OC(=O)CC(C)C [Compound 1079C, carvacryl isovalerate] | -10% | 87.5% | 95% |  |  | 
16 | CC(C)=CCCC(C)CC(=O)OCC1CCC1 (stereo not shown) [Compound 2026, cyclobutylmethyl citronellate] | 25% | 37.5% | 25% |  |  | 
17 | CC(=O)OCCOC(=O)C=Cc1ccccc1 [Compound 1105, 2-acetoxyethyl cinnamate] | 30% | 15% | 10% |  |  | 
18 | CC(C)=CCCC(C)CCOC=O (stereo not shown) [Compound 1089, citronellyl formate] | 77.5% | 92.5% | 90% |  |  | 

Row | Structure (SMILES) | pest or weed control at 0.5 % [1] | pest or weed control at 0.5 % [2] | pest or weed control at 0.5 % [3] | Short-term percentage repellency 150 min at 1/5 the concentration (0.1% (1/5 of 0.5%), 150 minutes, FIG. 6) | Short-term repellency at low concentration, in words (FIG. 6) | pest or weed control at 0.5 % (0.25 h, read-out: Short-term Percentage repellency 15 min)
19 | CCCCCCC(=O)OCCC(C)CCC=C(C)C (stereo not shown) [Compound 2203, citronellyl hexanecarboxylate] | 0% | 10% | 20% |  |  | 
20 | Cc1ccc(C(C)C)c(OC(=O)C(F)F)c1 [Compound 2194, thymyl difluoroacetate] |  |  |  |  |  | 20%
21 | CC(C)=CCCC(C)CCOC(=O)C(C)(F)F (stereo not shown) [Compound 2232, citronellyl 2,2-difluoropropanoate] | 50% | 82.5% | 82.5% |  |  | 
22 | Cc1cc(OC(=O)C2CC2)c(C(C)C)cc1[N+](=O)[O-] [Compound 1066B, 4-nitrothymyl cyclopropanecarboxylate] | 37.5% | 57.5% | 70% |  |  | 
23 | CC(C)=CCCC(C)CCOC(=O)c1ccccc1 (stereo not shown) [Compound 2189, citronellyl benzoate] | 6.5% | 17.5% | 27.5% |  |  | 
24 | Cc1cc(OC(=O)C(C)C)c(C(C)C)cc1Cl [Compound 1144B, chlorothymyl isobutyrate] | 40% | 77.5% | 87.5% |  |  | 
25 | CC(C)=CCC/C(C)=C\COC(=O)CC(C)C [Compound 2255B, neryl isovalerate] | 7.5% | 75% | 80% |  |  | 
26 | CC(C)CC(=O)OCC1=CCC2CC1C2(C)C (stereo not shown) [Compound 2258, myrteryl isovalerate] | 35% | 85% | 87.5% |  |  | 
27 | CC(C)=CCCC(C)CCOC(=O)c1cccs1 (stereo not shown) [Compound 2180, Citronellyl thiophene-2-carboxylate] | 0% | 37.5% | 45% |  |  | 
28 | CC1=CCC(C(C)(C)OC(=O)CC(C)C)CC1 (stereo not drawn) [Compound 2257, alpha-terpinyl isovalerate] | 10% | 55% | 65% |  |  | 
29 | Cc1cc(OC(=O)C2CC2)c(C(C)C)cc1Br [Compound 1075B, 4-bromothymyl cyclopropanecarboxylate] | 47.5% | 32.5% | 30% |  |  | 
30 | C#CC(C)(C)OC(=O)CC(C)CCC=C(C)C (stereo not shown) [Compound 2171, 1,1-dimethylpropargyl citronellate] | 37.5% | 67.5% | 62.5% |  |  | 
31 | CC(C)=CCCC(C)CCOC(=O)CC1CC1 (stereo not shown) [Compound 2229, citronellyl cyclopropylacetate] |  |  |  |  | significant levels of repellency | 
32 | CC(C)=CCCC(C)CCOC(=O)CC#N (stereo not shown) [Compound 2198, citronellyl cyanoacetate] | 37.5% | 32.5% | 40% |  |  | 
33 | C=C(C)CCOC(=O)CC(C)CCC=C(C)C (stereo not shown) [Compound 2168, isoprenyl citronellate] | 27.5% | 62.5% | 72.5% |  |  | 
34 | CC(C)=CCCC(C)CC(=O)OC1COC1 (stereo not shown) [Compound 3071, 3-oxetanyl citronellate] | 2.5% | 37.5% | 40% |  |  | 
35 | CC1CCC(C(C)C)C(OC(=O)Cc2cccs2)C1 (stereo not shown) [Compound 2245, menthyl thiophen-2-ylacetate] | -35% | 35% | 57.5% |  |  | 
36 | CC(C)=CCCC(C)CCOC(=O)C(C)(C)F (stereo not shown) [Compound 2208, citronellyl 2-fluoroisobutyrate] | 37.5% | 75% | 77.5% |  |  | 
